Results from paper PMC6277198, “Molecular basis for activation of lecithin:cholesterol acyltransferase by a compound that increases HDL cholesterol” (eLife, 2018).
Residue numbers refer to the chain shown, from its start.

Experiments:
Assay in all cases: DHE acyltransferase assay with peptide-based HDLs
Format in all cases: biochemical
LCAT R244A = molecular target: T1, LCAT R244A (Homo sapiens, UniProt P04180, R268A)
T1 construct: hydrolysis of 4-methylumbelliferyl palmitate (MUP) by full-length LCAT; made in house; host or cells: HEK293F (transient transfection, secreted)
T1 sequence (P04180 25-440 R268A): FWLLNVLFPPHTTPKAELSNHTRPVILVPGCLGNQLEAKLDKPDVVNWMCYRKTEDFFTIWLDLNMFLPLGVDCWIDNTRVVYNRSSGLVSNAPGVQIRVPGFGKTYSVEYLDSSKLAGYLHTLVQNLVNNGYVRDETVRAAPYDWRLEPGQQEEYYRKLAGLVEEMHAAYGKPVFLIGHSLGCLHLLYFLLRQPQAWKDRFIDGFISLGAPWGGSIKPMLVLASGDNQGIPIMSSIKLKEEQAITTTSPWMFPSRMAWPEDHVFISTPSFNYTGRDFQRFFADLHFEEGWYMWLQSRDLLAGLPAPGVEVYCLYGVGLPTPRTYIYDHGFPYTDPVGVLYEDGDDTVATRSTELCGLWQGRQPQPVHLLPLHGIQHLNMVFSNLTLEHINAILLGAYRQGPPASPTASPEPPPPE
Method: (§1) Peptide-based HDLs were used in this assay as there is no difference between peptide HDLs and ApoA-I HDLs in both HDL binding and acyltransferase assays ([Manthei et al., 2017]). The peptide HDLs were made using the ESP24218 peptide with the sequence […] ([Dassuex et al., 1999]; [Li et al., 2015]) with a DPPC:POPC:DHE ratio of 47:47:6 as previously described ([Manthei et al., 2017]). The assay was performed in 384-well low volume black microplates (Corning 4514) with a total assay volume of 16 μL. In each reaction, LCAT was diluted in assay buffer to 15 μg mL^−1 in the presence of either 1% DMSO or 10 μM 2 with 1% DMSO. Compound 2 was used in this assay because it has lower background fluorescence than 1. The DHE HDLs were diluted in 1X PBS with 1 mM EDTA and 5 mM β-mercaptoethanol. 8 μL of the HDLs were added to the plate, and the reactions were initiated with 8 μL of LCAT, so that LCAT was assayed at 7.5 μg mL^−1 with and without 5 μM compound with a range of DHE concentrations from 0 to 50 μM. The reactions were stopped after 25 min at 37 °C with the addition of 4 μL of stop solution (1X PBS with 1 mM EDTA, 5 U mL^−1 cholesterol oxidase (COx), and 7% Triton X100). Following the addition of stop solution, the plates were incubated for another 60 min at 37 °C to allow for the COx to react. After the plates were re-equilibrated at room temperature, fluorescence was determined on a SpectraMax plate reader with excitation at 325 nm and emission at 425 nm, with a 420 nm cutoff. Reactions without LCAT were used for background subtraction, and reactions without LCAT and stop solution lacking COx were used to generate a standard curve for DHE. Reactions were performed in triplicate with three independent experiments per LCAT variant. Data were processed via background subtraction to remove excess fluorescence that results from the higher concentrations of DHE. […] Outliers were removed using automatic outlier elimination within Prism. For statistical analysis, the Vmax for each variant was compared to WT using a one-way analysis of variance followed by Tukey’s multiple comparisons post-test in GraphPad Prism.
(§2) To determine EC50 values, compound 2 was titrated from 0.004 to 10 μM, and the DHE concentration was set at 50 μM. LCAT was diluted in assay buffer and compound 2 dilutions were made with assay buffer containing 5.3% DMSO. 1.5 μL compound was added, then 6.5 μL LCAT, followed by 8 μL DHE. Dilutions were adjusted so that LCAT was assayed at 7.5 μg mL^−1, as above. All values were background subtracted to buffer with the same concentration of compound 2. A standard curve was included in one experiment with DHE from 0 to 50 μM in order to adjust the final fluorescence values to a rate by dividing by the slope of the line and time (25 min), as above. Outliers were removed using automatic outlier elimination within Prism. For statistical analysis, the EC50 for each variant was compared to WT using a one-way analysis of variance followed by Tukey’s multiple comparisons post-test in GraphPad Prism.

LCAT R244H = molecular target: T2, LCAT R244H (Homo sapiens, UniProt P04180, R268H)
T2 construct: hydrolysis of 4-methylumbelliferyl palmitate (MUP) by full-length LCAT; made in house; host or cells: HEK293F (transient transfection, secreted)
T2 sequence (P04180 25-440 R268H): T1 sequence (P04180 25-440 R268A) with A244H
Method: as §1, §2

LCAT Y51S/G71I = molecular target: T3, LCAT Y51S/G71I (Homo sapiens, UniProt P04180, G95I/Y75S)
T3 construct: hydrolysis of 4-methylumbelliferyl palmitate (MUP) by full-length LCAT; made in house; host or cells: HEK293F (transient transfection, secreted)
T3 sequence (P04180 25-440 Y75S/G95I): T1 sequence (P04180 25-440 R268A) with Y51S, G71I, A244R
Method: as §1, §2

[1] = compound 2 titrated from 0.004 to 10 μM, DHE 50 μM
[2] = highest concentration tested, 10 μM compound 2

- EC50 (LCAT R244A; [1]): 760 ± 200 nM
- acyltransferase rate (LCAT R244A; [2]): 18 µM/h
- EC50 (LCAT R244H; [1]): 4.6 ± 2 µM
- acyltransferase rate (LCAT R244H; [2]): 26 µM/h
- acyltransferase activity in the presence of compound 2 (LCAT Y51S/G71I; Y51S/G71I variant): failed to increase activity
- DHE assay EC50 (LCAT Y51S/G71I; Y51S/G71I, compound 2 titrated from 0.004 to 10 μM, DHE 50 μM): no effect
Compound: O=C1CC(O)(C(F)(F)F)c2c(C3CCN(c4cnc(C(F)(F)F)cn4)CC3)n[nH]c2N1 (stereo not drawn) [compound 2, 4-Hydroxy-4-(trifluoromethyl)−3-(1-(5-(trifluoromethyl)pyrazin-2-yl)piperidin-4-yl)−4,5-dihydro-1H-pyrazolo[3,4-b]pyridin-6(7H)-one]
